Data published in US20020169326A1, “Esters and amides as PLA2 inhibitors” (FUJISAWA PHARMACEUTICAL COMPANY, LTD., priority 1995, published 2002).

Test system: not given
Assay: not given
Settings: not given

First: CCCN(C(=O)[C@H](CCC(=O)O)NC(=O)c1cn(Cc2ccccc2Cl)c2ccccc12)[C@H](CC(N)=O)Cc1ccc2ccccc2c1
Second: CCCCN(C(=O)[C@H](CCCC(=O)O)NC(=O)c1cn(Cc2ccccc2Cl)c2ccccc12)[C@H](CC(N)=O)Cc1ccc2ccccc2c1
The melting point of the first is lower: 85 to 92 °C for the first, 104 to 110 °C for the second.

First: CCCCc1ccc(C[C@@H](CC(N)=O)N(CCCC)C(=O)[C@H](CCCC(=O)O)NC(=O)c2cn(Cc3ccccc3Cl)c3ccccc23)cc1
Second: CCCCc1ccc(C[C@@H](CC(N)=O)N(CCC)C(=O)[C@H](CCCC(=O)O)NC(=O)c2cn(Cc3ccccc3Cl)c3ccccc23)cc1
The melting point of the first is higher: 166 to 168 °C for the first, 83 to 87 °C for the second.

First: CCCCc1ccc(C[C@@H](CC(N)=O)N(CCCC)C(=O)[C@H](CCCC(=O)O)NC(=O)c2cn(Cc3ccccc3)c3ccccc23)cc1
Second: CCCCc1ccc(C[C@@H](CC(N)=O)N(CCC)C(=O)[C@H](CCCC(=O)O)NC(=O)c2cn(Cc3ccccc3)c3ccccc23)cc1
The melting point of the first is lower: 77 to 82 °C for the first, 82 to 88 °C for the second.

CCCN(C(=O)[C@H](CCCC(=O)O)NC(=O)c1cn(Cc2ccccc2Cl)c2ccccc12)[C@H](CC(N)=O)Cc1ccc(C)cc1 and CCCN(C(=O)[C@H](CCCC(=O)O)NC(=O)c1cn(Cc2ccccc2)c2ccccc12)[C@H](CC(N)=O)Cc1ccc(C)cc1 cannot be ordered by melting point: 79 to 96 °C for the first, 83 to 92 °C for the second.

CCCCN(C(=O)[C@H](CCCC(=O)O)NC(=O)c1cn(Cc2ccccc2)c2ccccc12)[C@H](CC(N)=O)Cc1ccc2ccccc2c1 and CCCCCN(C(=O)[C@H](CCCC(=O)O)NC(=O)c1cn(Cc2ccccc2)c2ccccc12)[C@H](CC(N)=O)Cc1ccc2ccccc2c1 cannot be ordered by melting point: 90 to 96 °C for the first, 89 to 93 °C for the second.

CCN(C(=O)[C@H](CCCC(=O)O)NC(=O)c1cn(Cc2ccccc2Cl)c2ccccc12)[C@H](CC(N)=O)Cc1ccc2ccccc2c1 and CCN(C(=O)[C@H](CCCC(=O)O)NC(=O)c1cn(Cc2ccccc2)c2ccccc12)[C@H](CC(N)=O)Cc1ccc2ccccc2c1 cannot be ordered by melting point: 110 to 114 °C for the first, 110 to 112 °C for the second.

CCN(C(=O)[C@H](CCCC(=O)O)NC(=O)c1cn(Cc2cccc3ccccc23)c2ccccc12)[C@H](CC(N)=O)Cc1ccc2ccccc2c1 and CCCN(C(=O)[C@H](CCCC(=O)O)NC(=O)c1cn(Cc2cccc3ccccc23)c2ccccc12)[C@H](CC(N)=O)Cc1ccc2ccccc2c1 cannot be ordered by melting point: 118 to 126 °C for the first, 123 to 126 °C for the second.

First: CCCCCN(C(=O)[C@H](CCCC(=O)O)NC(=O)c1cn(Cc2cccc3ccccc23)c2ccccc12)[C@H](CC(N)=O)Cc1ccc2ccccc2c1
Second: CCCN(C(=O)[C@H](CCCC(=O)O)NC(=O)c1cn(Cc2ccccc2)c2ccccc12)[C@H](CC(N)=O)Cc1ccc2ccccc2c1
The melting point of the first is higher: 112 to 116 °C for the first, 91 to 94 °C for the second.

First: CCCCCCCCCCCCC[C@@H](CC(N)=O)N(Cc1ccccn1)C(=O)[C@H](CCCC(=O)O)NC(=O)c1ccc2ccccc2n1.Cl.Cl
Second: CCCCCCCCCCCCC[C@@H](CC(N)=O)N(CCC)C(=O)[C@H](CCCC(=O)O)NC(=O)c1ccc2ccccc2n1.Cl
The melting point of the first is higher: 74 to 81 °C for the first, 59 to 62 °C for the second.

First: CCCCCCCCC[C@@H](CC(N)=O)N(CCCCC)C(=O)[C@H](CCCC(=O)O)NC(=O)c1cn(Cc2ccccc2)c2ccccc12
Second: CCCCCC[C@@H](CC(N)=O)N(CCCCC)C(=O)[C@H](CCCC(=O)O)NC(=O)c1cn(Cc2ccccc2)c2ccccc12
The melting point of the first is lower: 125 to 127 °C for the first, 127 to 129 °C for the second.

First: CCCCCC[C@@H](CC(N)=O)N(CCCC)C(=O)[C@H](CCCC(=O)O)NC(=O)c1cn(Cc2ccccc2)c2ccccc12
Second: CCCCCC[C@@H](CC(N)=O)N(CCC)C(=O)[C@H](CCCC(=O)O)NC(=O)c1cn(Cc2ccccc2)c2ccccc12
The melting point of the first is lower: 124 to 127 °C for the first, 147 to 157 °C for the second.

Compared with CCCCCC[C@@H](CC(N)=O)N(CCCC)C(=O)[C@H](CCCC(=O)O)NC(=O)c1cn(Cc2ccccc2Cl)c2ccccc12, CCCCCC[C@@H](CC(N)=O)N(CCC)C(=O)[C@H](CCCC(=O)O)NC(=O)c1cn(Cc2ccccc2Cl)c2ccccc12 is higher in melting point: 153 to 156 °C for the first, 175 to 180 °C for the second.

First: CCCCCC[C@@H](CC(N)=O)N(CCC)C(=O)[C@H](CCCC(=O)O)NC(=O)c1cn(Cc2cccc(Cl)c2)c2ccccc12
Second: CCCCCCCCC[C@@H](CC(N)=O)N(CCC)C(=O)[C@H](CCCC(=O)O)NC(=O)c1cn(Cc2ccccc2)c2ccccc12
The melting point of the first is lower: 106 to 109 °C for the first, 155 to 160 °C for the second.

First: CCCCCC[C@@H](CC(N)=O)N(CCC)C(=O)[C@H](CCCC(=O)O)NC(=O)c1cn(Cc2cccc3ccccc23)c2ccccc12
Second: CCCC[C@@H](CC(N)=O)N(CCC)C(=O)[C@H](CCCC(=O)O)NC(=O)c1cn(Cc2cccc3ccccc23)c2ccccc12
The melting point of the first is higher: 139 to 141 °C for the first, 98 to 116 °C for the second.

CCCCCC[C@@H](CC(N)=O)N(CCC)C(=O)[C@H](CCCC(=O)O)NC(=O)c1cn(Cc2ccccn2)c2ccccc12 and CCCCCC[C@@H](CC(N)=O)N(CC)C(=O)[C@H](CCCC(=O)O)NC(=O)c1cn(Cc2ccccc2)c2ccccc12 cannot be ordered by melting point: 78 to 95 °C for the first, 80 to 85 °C for the second.

First: CCCC[C@@H](CC(N)=O)N(CCC)C(=O)[C@H](CCCC(=O)O)NC(=O)c1cn(Cc2ccccc2Cl)c2ccccc12
Second: CCCC[C@@H](CC(N)=O)N(CCCC)C(=O)[C@H](CCCC(=O)O)NC(=O)c1cn(Cc2ccccc2Cl)c2ccccc12
The melting point of the first is lower: 95 to 98 °C for the first, 105 to 110 °C for the second.

CCCN(C(=O)[C@H](CCCC(=O)O)NC(=O)c1cn(Cc2ccccn2)c2ccccc12)[C@H](CC(N)=O)Cc1ccc2cc(CC)ccc2c1 and CCCN(C(=O)[C@H](CCCC(=O)O)NC(=O)c1cn(Cc2ccccc2)c2ccccc12)[C@H](CC(N)=O)Cc1ccc2cc(CC)ccc2c1 cannot be ordered by melting point: 110 to 116 °C for the first, 105 to 116 °C for the second.

CCCCN(C(=O)[C@H](CCCC(=O)O)NC(=O)c1cn(Cc2ccccc2)c2ccccc12)[C@H](CC(N)=O)Cc1ccc2cc(CC)ccc2c1 and CCCCN(C(=O)[C@H](CCCC(=O)O)NC(=O)c1cn(Cc2ccccc2Cl)c2ccccc12)[C@H](CC(N)=O)Cc1ccc2cc(CC)ccc2c1 fall in the same range of melting point: 100 to 116 °C for the first, 100 to 116 °C for the second.

First: CCCCCCCCC[C@@H](CC(N)=O)N(CCC)C(=O)[C@H](CCCC(=O)O)NC(=O)c1cn(Cc2ccccc2Cl)c2ccccc12
Second: CCCCCC[C@@H](CC(N)=O)N(CC)C(=O)[C@H](CCCC(=O)O)NC(=O)c1cn(Cc2ccccc2Cl)c2ccccc12
The melting point of the first is lower: 145 to 150 °C for the first, 180 to 183 °C for the second.

Compared with CCCCCCCc1ccc(C[C@@H](CC(N)=O)N(CCCC)C(=O)[C@H](CCCC(=O)O)NC(=O)c2cn(Cc3ccccc3Cl)c3ccccc23)cc1, CCCC[C@@H](CC(N)=O)N(CCCC)C(=O)[C@H](CCCC(=O)O)NC(=O)c1cn(Cc2cccc3ccccc23)c2ccccc12 is higher in melting point: 79 to 81 °C for the first, 105 to 113 °C for the second.

Compared with CC(C)(C)OC(=O)N[C@@H](CCCC(=O)OCc1ccccc1)C(=O)O[C@H](CC(N)=O)Cc1ccc(-c2ccccc2)cc1 [Example 40, (3S)-3-[(2S)-5-Benzyloxycarbonyl-2-(tert-butoxycarbonylamino)pentanoyl]oxy-4-(4-biphenylyl)butanamide], Cc1ccc(Cn2c(C(=O)N[C@@H](CCCC(=O)O)C(=O)O[C@H](CC(N)=O)Cc3ccc4ccccc4c3)cc3ccccc32)cc1 [Example 165, (3S)-3-[(2S)-5-Carboxy-2-[{1-(4-methylbenzyl)indol-2-ylcarbonyl}amino]pentanoyl]oxy-4-(2-naphthyl)butanamide] is lower in melting point: 94 to 98 °C for the first, 86 to 90 °C for the second.

First: CCCCCCCCCCCCC[C@@H](CC(N)=O)N(CC(C)C)C(=O)[C@H](CCCC(=O)O)NC(=O)c1ccc2ccccc2n1 [Example 149, (3S)-3-[N-Isobutyl-{(2S)-5-carboxy-2-(2-quinolylcarbonylamino)pentanoyl}amino]hexadecanamide]
Second: CN(CCC(N)=O)C(=O)[C@H](CCCC(=O)O)NC(=O)c1cc2ccccc2cc1Cc1ccccc1 [Example 180, 3-[N-Methyl-{(2S)-2-(3-benzylnaphthalen-2-ylcarbonyl)amino-5-carboxypentanoyl}amino]propanamide]
The melting point of the first is lower: 65 to 66 °C for the first, 147 to 157 °C for the second.

Target: T1, human recombinant PLA2 group II enzyme (Homo sapiens, UniProt P14555)
T1 sequence (P14555 21-144): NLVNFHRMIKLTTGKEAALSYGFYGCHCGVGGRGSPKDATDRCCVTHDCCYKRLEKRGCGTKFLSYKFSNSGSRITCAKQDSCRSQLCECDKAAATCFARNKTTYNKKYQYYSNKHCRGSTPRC
Assay: Test on the inhibitory effect against phospholipase A2 (PLA2), fluorescent phospholipid substrate
Assay type: biochemical
Settings: dose 1 × 10^−6 M; 10-pyrene PA-monomethyl ester substrate, room temperature, 10 minutes; read-out: Percent inhibition: inhibition (%)
Procedure: Test on the inhibitory effect against phospholipase A2 (PLA2)
PLA2 activity was assayed with a fluorescent phospholipid analogue [1-palmitoyl-2-(10-pyrenyldecanoyl)-sn-glycero-3-monomethylphosphatidic acid(10-pyrene PA-monomethyl ester)] as a substrate, according to Radvanyi et al. (1989) with several modifications. Briefly, the reaction medium was prepared by sequential addition of 1160 μl of 50 mM Tris-HCl (pH 7.4) buffer containing 100 mM NaCl and 1 mM EDTA, 10 μl of 120 μM 10-pyrene PA-monomethyl ester in ethanol, 10 μl of drug sample in methanol and 10 μl of 1.2 μg/ml human recombinant PLA2 group II enzyme. The enzymatic reaction was then initiated with 10 μl of 0.84 M CaCl2. Following incubation at room temperature for 10 minutes, the reaction was terminated by addition of 25 μl of 1 M EDTA and 10 μl of 10 mg/ml β-cyclodextrin. Fluorescence measurements were carried out with a JASCO Corporation FP-777 spectrofluorometer. Excitation and emission wavelengths were 345 nm and 380 nm, respectively. All data are the average of at least duplicate determinations corrected for the spontaneous fluorescence of the reaction medium. Data were expressed as percent inhibition.
F. Radvanyi, L. Jordan, F. Russo-Marie and C. Bon: A sensitive and continuous fluorometric assay for phospholipase A2 using pyrene-labeled phospholipids in the presence of serum albumin. […]

In the case of NC(=O)C[C@H](Cc1ccc2ccccc2c1)OC(=O)[C@H](CCCC(=O)O)NC(=O)c1cc2ccccc2cc1Cc1ccccc1 [Example 24, (3S)-3-[(2S)-2-(3-Benzylnaphthalen-2-ylcarbonylamino)-5-carboxypentanoyl]oxy-4-(2-naphthyl)butanamide], the inhibition at 1 µM is reported as 100%.
